Data reported in patent US6669946B2, “METHOD FOR IDENTIFYING INDIVIDUALS SUFFERING FROM A CELLULAR ABNORMALITY SOME OF WHOSE ABNORMAL CELLS PRESENT COMPLEXES OF HUMAN LEUKOCYTE ANTIGEN TYROSINASE DERIVED PEPTIDES, AND METHODS FOR TREATING SAID INDIVIDUALS” (Ludwig Institute for Cancer Research, priority 1992, dated 2003).
“Also recorded” adds a separate entry of the source.

B1: 400 base pair fragment: fragment corresponding to bases 711 to 1152 of SEQ ID NO: 1 (nucleic acid)
DNA: AAACTTCACTATTCCATATTGGGACTGGCGGGATGCAGAAAAGTGTGACATTTGCACAGATGAGTACATGGGAGGTCAGCACCCCACAAATCCTAACTTACTCAGCCCAGCATCATTCTTCTCCTCTTGGCAGATTGTCTGTAGCCGATTGGAGGAGTACAACAGCCATCAGTCTTTATGCAATGGAACGCCCGAGGGACCTTTACGGCGTAATCCTGGAAACCATGACAAATCCAGAACCCCAAGGCTCCCCTCTTCAGCTGATGTAGAATTTTGCCTGAGTTTGACCCAATATGAATCTGGTTCCATGGATAAAGCTGCCAATTTCAGCTTTAGAAATACACTGGAAGGATTTGCTAGTCCACTTACTGGGATAGCGGATGCCTCTCAAAGCAGCATGCACAATGCCTTGCACATCTATATGAATGGAACAATGTCCCAG
B2: second gene fragment: fragment from base 1 to base 1092 of SEQ ID NO: 1, not encoding SEQ ID NO: 2 (nucleic acid)
DNA: GACCTTGTGAGGACTAGAGGAAGAATGCTCCTGGCTGTTTTGTACTGCCTGCTGTGGAGTTTCCAGACCTCCGCTGGCCATTTCCCTAGAGCCTGTGTCTCCTCTAAGAACCTGATGGAGAAGGAATGCTGTCCACCGTGGAGCGGGGACAGGAGTCCCTGTGGCCAGCTTTCAGGCAGAGGTTCCTGTCAGAATATCCTTCTGTCCAATGCACCACTTGGGCCTCAATTTCCCTTCACAGGGGTGGATGACCGGGAGTCGTGGCCTTCCGTCTTTTATAATAGGACCTGCCAGTGCTCTGGCAACTTCATGGGATTCAACTGTGGAAACTGCAAGTTTGGCTTTTGGGGACCAAACTGCACAGAGAGACGACTCTTGGTGAGAAGAAACATCTTCGATTTGAGTGCCCCAGAGAAGGACAAATTTTTTGCCTACCTCACTTTAGCAAAGCATACCATCAGCTCAGACTATGTCATCCCCATAGGGACCTATGGCCAAATGAAAAATGGATCAACACCCATGTTTAACGACATCAATATTTATGACCTCTTTGTCTGGATGCATTATTATGTGTCAATGGATGCACTGCTTGGGGGATCTGAAATCTGGAGAGACATTGATTTTGCCCATGAAGCACCAGCTTTTCTGCCTTGGCATAGACTCTTCTTGTTGCGGTGGGAACAAGAAATCCAGAAGCTGACAGGAGATGAAAACTTCACTATTCCATATTGGGACTGGCGGGATGCAGAAAAGTGTGACATTTGCACAGATGAGTACATGGGAGGTCAGCACCCCACAAATCCTAACTTACTCAGCCCAGCATCATTCTTCTCCTCTTGGCAGATTGTCTGTAGCCGATTGGAGGAGTACAACAGCCATCAGTCTTTATGCAATGGAACGCCCGAGGGACCTTTACGGCGTAATCCTGGAAACCATGACAAATCCAGAACCCCAAGGCTCCCCTCTTCAGCTGATGTAGAATTTTGCCTGAGTTTGACCCAATATGAATCTGGTTCCATGGATAAAGCTGCCAATTTCAGCTTTAGAAATACACTGGAAGGATTTGCTAGTCCACTTACTGGGATAGCGGAT

Legend:
Format in all cases: cell-based, human
[1] = test system: cytolytic T cell clone CTL 2/9; experiment: 51Cr release assay on peptide-sensitized HLA-A2 presenting cells with CTL 2/9; conditions: SK29-MEL 1.218 and T202LB; peptide 100 μM down to 0.01 μM; E/T ratio 40/1; four hours
Method: (§1) Using the methodologies described in examples 1-5, various fragments of the CDNA were cotransfected with a gene for HLA-A2 in COS-7 cells, and TNF release assays were performed. […] The 400 base fragment used corresponded to bases 711 to 1152 of SEQ ID NO: 1. The amino acid sequence for which the fragment codes was deduced, and this sequence was then compared to the information provided by Hunt et al., Science 255: 1261 (1992), and Falk et al., Nature 351: 290 (1991), the disclosures of which are both incorporated by reference in their entirety. These references discuss consensus sequences for HLA-A2 presented peptides. Specifically, Hunt discusses nonapeptides, where either Leu or Ile is always found at the second position, Leu being the “dominant residue”. The ninth residue is described as always being a residue with an aliphatic hydrocarbon side chain. Val is the dominant residue at this position. […]
(§2) The tyrosinase loss variants, cytolytic T cell clones, and peptides were incubated for one hour in a solution containing ^51Cr, at 37° C., either with or without anti HLA-A2 antibody MA2.1, which was used to stabilize empty HLA-A2 molecules. […] After 30 minutes, effector cells were added at an E/T ratio of 40/1 and four hours later, 10λ of supernatant were collected and radioactivity counted.

[2] = test system: CTL clone CTL 210/9; experiment: Parallel peptide recognition experiment with CTL 210/9
Method: as §1
as §2, with “counted. […]” for “counted.”

[3] = test system: cytolytic T cell clone CTL IVSB; experiment: 51Cr release assay on peptide-sensitized HLA-A2 presenting cells with CTL IVSB; conditions: SK29-MEL 1.218 and T202LB; peptide 100 μM down to 0.01 μM; E/T ratio 40/1; four hours
Method: as §1, §2

[4] = test system: CTL IVSB; experiment: TNF release by CTL IVSB on COS-7 cells cotransfected with HLA-A2 and cDNA pool or fragment; conditions: COS-7 cotransfected with cDNA fragment and HLA-A2 gene
Method: (§3) The amplified plasmids were then transfected into eukaryotic cells. Samples of COS-7 cells were seeded, at 15,000 cells/well into tissue culture flat bottom microwells, in Dulbeco's modified Eagles Medium (“DMEM”) supplemented with 10% fetal calf serum. The cells were incubated overnight at 37° C., medium was removed and then replaced by 30 μl/well of DMEM medium containing 10% Nu serum, 400 μg/ml DEAE-dextran, 100 μM chloroquine, 100 ng of plasmid pcDNA-I/Amp-A2 and 100 ng of DNA of a pool of the cDNA library described supra. Plasmid pcDNA-I/Amp-A2 contains the HLA-A2 gene from SK29-MEL. Following four hours of incubation at 37° C, the medium was removed, and replaced by 50 μl of PBS containing 10% DMSO. This medium was removed after two minutes and replaced by 200 μl of DMEM supplemented with 10% of FCS.
(§4) Following this change in medium, COS cells were incubated for 48 hours at 37° C. Medium was then discarded, and 2000 cells of either of the described CTL clones were added, in 100 μl of Iscove medium containing 10% pooled human serum. When clone 210/9 was used, the medium was supplemented with 25 U/ml of IL-2. Supernatant was removed after 24 hours, and TNF content was determined in an assay on WEHI cells, as described by Traversari et al., Immunogenetics 35: 145-152 (1992), the disclosure of which is incorporated by reference. […]

[5] = test system: CTL 210/9; experiment: TNF release by CTL 210/9 on COS-7 cells cotransfected with HLA-A2 and cDNA pool or fragment; conditions: COS-7 cotransfected with cDNA fragment and HLA-A2
Method: as §3, §4

Molecule | recognition of peptide by CTL 2/9 [1] | recognition of complexes of HLA-A2 and peptide by CTL 210/9 [2] | recognition of complexes of HLA-A2 and peptide by CTL IVSB [3] | TNF release from / recognition by CTL IVSB [4] | recognition by CTL 210/9 of antigen on transfected cells [5]
Tyr Met Asn Gly Thr Met Ser Gln Val (YMNGTMSQV) [SEQ ID NO: 2, tyrosinase derived nonapeptide presented by HLA-A2] | not | not recognized; also recorded: did not recognize | recognition; also recorded: recognized |  | 
B1 |  |  |  | provoked TNF release | 
B2 |  |  |  | did not | recognized
